How the values were obtained:
[1] = tested on: HeLa cells; assay: Mitotic arrest (percentage of cells in mitosis) in HeLa cells; assay type: cell-based, human
Description: There were more rounded mitotic cells after C75 treatment in comparison to the control. FIG. 1B) is a line graph showing the percentage of HeLa and HFF1 cells in mitosis after treatment with various concentrations of C75 for 8 hours. The bars indicate standard deviation. FIG. 1C) is a series of images showing cells that were fixed and co-stained for tubulin (microtubules) and DAPI (DNA). Treatment of HeLa cells with 300 nM C75 caused the mitotic spindles to be disorganized, while they were not affected in HFF1 cells. […] The scale bar for the cells is 10 μm. FIG. 1D) is a cartoon schematic showing the key features of a metaphase cell.
(§1) FIG. 2A) is a line graph showing the percentage of HCT116 (p53−/−) cells, A549 cells, HeLa cells and H1299 cells in mitosis after treatment with various concentrations of C75 for one population doubling time. All of the cell lines show an increase in the proportion of mitotic cells after treatment with 200 nM C75. The bars indicate standard deviation. […] While the mitotic spindles were not dramatically altered by C75 in HFF1 cells, they were monopolar (as shown) or fragmented in the other cell types. […] The mitotic spindles were more strongly fragmented after C75 treatment in these cells vs. the cells in FIG. 2B). […] While mitotic spindles recovered bipolarity after removing nocodazole, they remained multipolar after removing C75. FIG. 2F) is a series of time-lapse images of a live HeLa cell expressing GFP:tubulin after treatment with C75 as shown in 2D) and 2E). The scale bar for all cells is 10 μm. FIG. 2G) is a schematic showing the putative target for C75. Healthy cells have two centrosomes that separate and form a bipolar spindle, while cancer cells have aberrant centrosomes that cluster to form ‘pseudo’ bipolar spindles, and C75 may target this process and their integrity.
FIG. 3A) is a line graph showing the percentage of mitotic HeLa or HFF1 cells treated with a range of paclitaxel (Taxol™; tubulin-targeting drug) concentrations+/−C75 as indicated. The bars indicate standard deviation. […]

[2] = tested on: H1299 (non-small cell lung cancer) cells; assay: Mitotic arrest (percentage of cells in mitosis) in H1299 cells; assay type: cell-based, human; settings: H1299, least responsive line
Description: as §1, with “Healthy cells have two centrosomes that separate and form a bipolar spindle, while cancer cells have aberrant centrosomes that cluster to form ‘pseudo’ bipolar spindles, and C75 may target this process and their integrity.” left out
C75 was also tested for efficacy in different cancer cell lines. […] To further assess the role of C75 in affecting centrosomes, HeLa cells were treated with C75 for a short period of time (5 minutes), then C75 was removed and the cells were analyzed for spindle phenotypes (schematic in FIG. 2D). […]

[3] = tested on: HFF1 cells; assay: Percentage of mitotic HFF1 cells with paclitaxel +/- C75; assay type: cell-based
From the text: FIG. 3A) is a line graph showing the percentage of mitotic HeLa or HFF1 cells treated with a range of paclitaxel (Taxol™; tubulin-targeting drug) concentrations+/−C75 as indicated. The bars indicate standard deviation. FIG. 3B) is a series of bar graphs showing the proportion of HCT116 cells that have monopolar spindles, bipolar spindles with aligned chromosomes, bipolar spindles with misaligned chromosomes and multipolar/fragmented spindles after treatments as shown. Treatments include DMSO (control), varying concentrations of paclitaxel and/or varying concentrations of C75 after 7 hours. While treatment of HCT116 cells with 2.5 nM paclitaxel caused a threshold of mitotic spindle phenotypes, adding increasing concentrations of C75 in combination with 2.5 nM paclitaxel caused the phenotypes to progressively worsen. FIG. 3C) is bar graph showing the average distance between centrosome fragments in HCT116 cells after treatments as shown. While centrosome fragments moved closer together with increased concentrations of paclitaxel, they moved further apart with increased concentrations of C75. […] FIG. 3E) is a line graph showing the percentage of mitotic HeLa or HFF1 cells treated with a range of nocodazole concentrations+/−C75 as indicated. The bars indicate standard deviation. […]

COc1ccc(S(=O)(=O)N2Cc3ccccc3-c3sc(Br)cc32)cc1 [Compound C75]
effect of C75 on selectivity of paclitaxel and nocodazole ([1]; HeLa vs. HFF1 cells, percentage of mitotic cells, tubulin drug +/- C75): enhances the selectivity | concentration causing mitotic arrest ([1]; HeLa, within one population doubling time): 100 to 200 nM | selectivity of mitotic arrest, HeLa vs. HFF1 ([1]; nanomolar concentrations, 8 hours): selectively causes mitotic arrest | concentration at which mitotic cells increase [2]: 200 nM | effect of C75 on non-cancerous cells treated with paclitaxel [3]: protective effect
